These results are taken from patent publication US20230037862A1, “SYNTHETIC AGONISTS OF TLR4 RECEPTOR” (UNIVERSITÀ DEGLO STUDI DI MILANO - BICOCCA, priority 2017, published 2023).

The target in one series is T1, hTLR4 (Homo sapiens, UniProt O00206+Q9Y6Y9).
T1 construct: host or cells: HEK-Blue hTLR4 (HEK cells)
Description: HEK-Blue hTLR4 SEAP reporter assay (NF-κB/AP-1 activation). In kind it is cell-based. The settings on record: HEK-Blue hTLR4 cells, 16-18 hours, SEAP reporter. The procedure:
(§1) HEK-Blue™ hTLR4 (FIG. 1A) and HEK-Blue™ Null2 (FIG. 1B) cells were treated with the indicated concentrations of compounds FP11, FP111, and with LPS (100 ng/mL) and incubated for 16-18 hours. Results were normalized to stimulation with LPS alone, and are expressed as mean of percentage ±ES. of at least three independent experiments.
HEK-Blue™ hTLR4 cells were treated with increasing concentrations of compound FP11 and of LPS and incubated for 16-18 hours. Results were normalized to maximum activation of the reporter produced by LPS (FIG. 2A) and to maximum activation of the reporter produced by the compound itself (FIG. 2B). Data were fitted to a sigmoidal four-parameter logistic equation in order to determine IC50 values, and expressed as mean of percentage ±ES of at least three independent experiments.
HEK-Blue™ hTLR4 cells are HEK cells transfected so as to stably express human receptors hTLR4, hMD-2, and hCD14 for endotoxin recognition. In addition, said cells have a reporter gene encoding for a secreted alkaline phosphatase (SEAP) μlaced under the control of specific transcription factors (NF-κB and AP-1) activated by the TLR4 signaling pathway. Therefore, the presence of LPS or of an agonist of TLR4 causes receptor dimerization, activation of the signaling pathway and of transcription factors NF-κB and AP-1, and finally SEAP production and secretion into the culture medium. SEAP levels can be subsequently quantitated by incubating the medium with compound p-nitrophenylphosphate (pNPP) and monitoring with a spectrophotometer the formation of p-nitrophenol chromogenic product at 405 nm.
HEK-Blue™ hTLR4 cells (InvivoGen) were cultured according to manufacturer's instruction. […]
Cells were detached using a cell scraper, counted and seeded in a 96-well multiwell plate at a density of 4×10^4 cells per well. […]
The wells' optical density was determined using a microplate reader set at 405 nm.
The results were normalized with positive control (LPS alone) and expressed as a mean of percentage ±SEM of at least three independent experiments.

A further series relates to HEK-Blue™ Null2 cells. Description: HEK-Blue Null2 counter-assay (SEAP reporter, no TLR4/MD-2/CD14). The series is classed as cell-based. The conditions noted are these: 16-18 hours. As for the experimental part:
as §1
In order to be certain that the agonist effect of compound FP11 be due to the interaction with the TLR4 receptor, the compounds were tested on the HEK-Blue™ Null2 cell line. Said line expresses the same reporter gene of HEK-Blue™ hTLR4 cells (SEAP), but has none of the receptors involved in endotoxin recognition (TLR4, MD-2, CD14).

Series [1] deals with T2, purified human MD-2 receptor (Homo sapiens, UniProt Q9Y6Y9).
T2 sequence (Q9Y6Y9 19-160): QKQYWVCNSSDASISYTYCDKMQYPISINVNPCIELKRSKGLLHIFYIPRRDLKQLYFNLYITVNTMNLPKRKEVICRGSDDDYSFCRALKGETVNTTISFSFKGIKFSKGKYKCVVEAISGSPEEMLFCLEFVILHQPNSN
Description: MD-2-bound fluorescent molecule (bis-ANS) displacement assay. The series is classed as binding. The conditions noted are these: MD-2 200 nM, bis-ANS 200 nM. As for the experimental part: therefore, TLR4 modulators that interact with MD-2 compete with compound bis-ANS, and are able to displace it from MD-2.
Fluorescence was measured on PerkinElmer fluorimeter LS 55 (PerkinElmer, UK) as previously described^[5].
All measurements were done at 20° C. in a 5×5 mm quartz glass cuvette (Hellma Suprasil, Müllheim, Germany). MD-2 protein (200 nM) and 1,1′-Bis(anilino)-4,4′-bis (naphtalene)-8,8′ disulfonate (bis-ANS, 200 nM) were mixed and incubated until reaching stable relative fluorescence units (RFUs) emitted at 420-550 nm under excitation at 385 nm.
Compounds, at different concentrations, were then added, followed by relative fluorescence unit (RFU) measurement at 420-550 nm.

Series [2] concerns the target T2, purified human MD-2 receptor. The experiment in a line: Biotinylated LPS displacement from MD-2 hydrophobic pocket (ELISA). The settings on record: increasing concentrations, highest 160 μM. The series is classed as binding. The procedure: The ability to displace LPS from MD-2 hydrophobic pocket was assessed by using an ELISA assay. Molecules FP11 and FP111 were added at increasing concentrations to MD-2 which had previously been incubated with biotinylated LPS.
The ability of the compounds to displace LPS from MD-2 hydrophobic pocket was determined by ELISA.
A microtiter plate was coated overnight at 4° C. with 100 μL/well of 5 μg/mL chicken polyclonal anti-MD-2 antibodies, diluted in 50 mM Na2CO3 buffer, pH 9.6, and blocked with 1% BSA in PBS. After washing, 1 μM MD-2 with biotin-labeled LPS was added and incubated for 2 h. After washing, the compounds were added at different concentrations and incubated for 1.5 h.
After washing, 0.5 μg/mL HRP-conjugated streptavidin (Sigma) in PBS was added, followed by detection at 420 nm after the addition of 100 μL of ABTS (Sigma). Chicken anti-MD-2 polyclonal antibodies were prepared against recombinant MD-2 by GenTel (Madison, Wis., USA),

Series [3] has the same target. The experiment in a line: Anti-MD-2 antibody (9B4) competition, antibody-sandwich ELISA. In kind it is binding. The conditions noted are these: up to 20 μM. As for the experimental part: The direct binding of molecules FP11 and FP111 to MD-2 was analyzed by using a monoclonal antibody binding MD-2, but not LPS-bound MD-2 (Viriyakosol, S., et al., Characterization of monoclonal antibodies to human soluble MD-2 protein. Hybridoma (Larchmt), 2006. 25(6): p. 349-57).
Anti-MD-2 monoclonal antibody (9B4) specifically binds an epitope near the MD-2 hydrophobic pocket, which is available for 9B4 antibody binding only when the MD-2 hydrophobic pocket is empty. Compound FP11 is accountable for a decrease of 9B4 antibody binding to MD-2 equal to 95% at a concentration of 20 μM (FIG. 3E).
The method of antibody-sandwich ELISA for the detection of the binding of compounds to MD-2 was modified from a previous study.
A microtiter plate was coated overnight at 4° C. with 100 μL/well of 5 μg/mL of chicken polyclonal anti-MD-2 antibodies, diluted in 50 mM Na2CO3 buffer, pH 9.6, and blocked with 1% BSA in PBS. After washing, 1 μM MD-2 with tested compounds was added and incubated for 2 h.
Mouse anti-MD-2 mAb (0.1 μg/mL 9B4) and goat antimouse IgG conjugated with HRP (0.1 μg/mL) in PBS were added, followed by detection at 420 nm after the addition of 100 μL of ABTS (Sigma).
Chicken anti-MD-2 polyclonal antibodies were prepared against recombinant MD-2 by GenTel (Madison, Wis., USA), monoclonal mouse anti-MD-9B4 antibodies were from eBioscience (San Diego, Calif., USA), and secondary goat antimouse IgG conjugated with horseradish peroxidase was from Santa Cruz Biotechnology (Santa Cruz, Calif., USA).

Series [4] shares this target. Description: Surface plasmon resonance binding to MD-2. The procedure: Surface plasmon resonance (SPR) experiments enable the study of direct interactions between the molecules to be characterized and MD-2.
The binding affinity of the compounds to recombinant MD-2 was determined using a Biacore X100 with an NTA sensor chip (Biacore, GE Healthcare, Uppsala, Sweden). Briefly, 0.5 μM MD-2 (in 50 mM TRIS, 150 mM NaCl, 0.5% Tween 20, pH 7.5) was immobilized onto the sensor chip previously activated with 1 min pulse of 10 mM NiSO4. The first flow cell was used as a reference surface to control nonspecific binding.
Both flow cells were incubated with the analyte (in PBS, 5% DMSO, 5% EtOH, pH 7.5) at a flow rate of 10 μL/min at 25° C. at increasing concentrations. The data were analyzed with Biacore Evaluation software. KD values were calculated by global fitting of the equilibrium binding responses from various concentrations of analytes using a 1:1 Langmuir binding model.

The subject of series [5] is murine macrophages and neutrophil granulocytes. The conditions noted are these: cited from earlier work.
The conditions of series [6]: galactosamine-sensitized mice; cited from earlier work.
Another series relates to infective agent. The settings on record: once or thrice, myelo-suppressed or immunocompetent mice; cited from earlier work.
The conditions of series [7]: repeated dosages; cited from earlier work.
A further series relates to Escherichia coli. The conditions noted are these: one dose one day prior to microbial inoculation; cited from earlier work.
For series [8] the following is noted: tumour-affected patients; cited from earlier work.
The subject of another series is CD14. The conditions noted are these: human peripheral blood cells; cited from earlier work.

Entries after “also recorded” stand apart in the source; their conditions may differ.

T1 sequence (O00206 24-839): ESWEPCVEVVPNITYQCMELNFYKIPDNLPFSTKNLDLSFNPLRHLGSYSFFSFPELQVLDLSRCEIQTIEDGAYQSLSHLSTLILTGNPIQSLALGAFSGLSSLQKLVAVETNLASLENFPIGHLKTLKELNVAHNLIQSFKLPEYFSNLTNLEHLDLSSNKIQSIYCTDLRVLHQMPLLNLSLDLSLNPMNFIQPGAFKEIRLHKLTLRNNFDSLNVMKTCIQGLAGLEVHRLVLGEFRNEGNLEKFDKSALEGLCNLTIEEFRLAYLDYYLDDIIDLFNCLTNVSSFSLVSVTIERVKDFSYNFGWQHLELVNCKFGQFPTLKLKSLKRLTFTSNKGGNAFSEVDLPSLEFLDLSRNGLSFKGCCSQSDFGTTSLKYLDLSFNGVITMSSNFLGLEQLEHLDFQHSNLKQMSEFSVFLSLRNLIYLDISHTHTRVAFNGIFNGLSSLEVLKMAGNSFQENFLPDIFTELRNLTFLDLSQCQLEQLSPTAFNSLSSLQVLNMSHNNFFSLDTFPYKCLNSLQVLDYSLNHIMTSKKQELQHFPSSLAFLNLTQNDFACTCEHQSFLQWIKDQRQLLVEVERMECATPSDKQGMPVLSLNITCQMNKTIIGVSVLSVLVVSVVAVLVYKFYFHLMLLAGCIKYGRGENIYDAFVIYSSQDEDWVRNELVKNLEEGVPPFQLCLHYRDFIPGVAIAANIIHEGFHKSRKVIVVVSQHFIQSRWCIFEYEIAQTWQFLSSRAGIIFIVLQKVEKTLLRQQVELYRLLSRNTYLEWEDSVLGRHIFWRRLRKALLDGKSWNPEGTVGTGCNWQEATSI
T1 sequence (Q9Y6Y9 17-160 limits assumed): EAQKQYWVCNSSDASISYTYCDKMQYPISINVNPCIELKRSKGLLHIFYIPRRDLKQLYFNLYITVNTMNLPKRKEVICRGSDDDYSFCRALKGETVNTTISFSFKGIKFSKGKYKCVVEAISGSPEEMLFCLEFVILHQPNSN

`CCCCCCCCCCCCCC(=O)NC1[C@H](OP(=O)(O)O)OC(COP(=O)(O)O)[C@@H](OC(=O)CCCCCCCCCCCCC)[C@@H]1OC(=O)CCCCCCCCCCCCC` (stereo partly drawn) [FP111, 1,6-O-Phosphoryl-2-deoxy-4-O-tetradecanoyl 3-O-tetradecanoyl-2-tetradecanoylamino-α-D-glucopiranoside]: the “TLR4 agonist activity (activation of NF-κB and AP-1)” value at hTLR4 is “completely inactive”. Moreover, in the series on HEK-Blue™ Null2 cells, the “activation of transcription factors NF-κB and AP-1 in cells without TLR4, MD-2, CD14” value is “unable to activate transcription factors NF-κB and AP-1”. Also, in series [1], the “decrease of bis-ANS fluorescence / inhibition of bis-ANS binding to MD-2” value is given as “not able to induce a decrease of compound bis-ANS fluorescence; also recorded: but not FP111, inhibits the binding of bis-ANS to MD-2”. Also, the “ability to displace biotinylated LPS from MD-2 hydrophobic pocket” value in series [2] is on record as “unable to displace biotinylated LPS; also recorded: but not FP111, displaces biotinylated LPS”. For the same compound, the “prevention of monoclonal antibody 9B4 binding to MD-2” value in series [3] was “unable to cause a decrease of 9B4 antibody binding; also recorded: but not FP111, prevents the binding of monoclonal antibody to MD-2”. The “direct binding to MD-2 (SPR)” value in series [4] is reported as “but not FP111, directly binds MD-2; also recorded: does not bind MD-2”.

Turning to `CCCCCCCCCCC[C@@H](O)CC(=O)N[C@H]1[C@@H](OP(=O)(O)O)O[C@H](CO)[C@@H](OC(=O)C[C@H](O)CCCCCCCCCCC)[C@@H]1OC(=O)C[C@H](O)CCCCCCCCCCC` [SDZ MRL 953], in series [5], the “stimulation of release of IL-6, IL-8 and TNF-α” value is listed as “potent activity in stimulating the release of inflammatory cytokines”. Also, in [6], the “factor of toxicity reduction compared to parent endotoxin (Salmonella abortus equi)” value is given as “at least 10^4”. For the same compound, the “protective effect on prophylactic administration” value in the series with infective agent is “highly protective effect”. For the same compound, the “duration of transient resistance to endotoxin-related lethal risks” value in [7] is no less than 1 week. Further, in the series on Escherichia coli, the “effect on curative effects of antibiotics” value was “dramatically increased the curative effects of antibiotics administered”. In addition, in series [8], the “effect on granulocyte counts and serum cytokine levels” value was “increases granulocyte counts and serum levels of G-CSF and interleukin-6 (IL-6), but not of pro-inflammatory cytokines TNF-α, IL-1b, and IL-8”; the “safety and tolerability of administration” value was “safe and of excellent tolerability”. For the same compound, the “blocking of compound-induced TNF-α release by monoclonal antibodies for CD-14” value in the series on CD14 was “is not blocked”.
